Six compounds from patent US20250002967A1, “METHODS FOR DETECTING MICROORGANISMS BY ADDING A FLUORESCENT DYE DIRECTLY TO THE SOLID GROWTH MEDIUM” (DIAMIDEX, priority 2021, published 2025) can be followed below.

The test system of test [1] is Escherichia coli ATCC® 8739™. Put plainly: Enumeration of colonies using the method of the invention. The test is classed as cell-based. As to conditions: E. coli; TSA agar; 35° C.; microcolony count.
For test [2], the system named is Candida albicans ATCC® 10231™. The description is as above. The test is classed as cell-based. The following applies: C. albicans; SDA agar; 35° C.; microcolony count.
Test [3] concerns Aspergillus brasiliensis ATCC® 16404™. The description is as above. The class given is cell-based. As to conditions: A. brasiliensis; SDA agar; 35° C.; microcolony count.
For test [4], the system named is K. pneumoniae ATCC® 13883™. Put plainly: Enumeration of bacteria implicated in uncomplicated and complicated UTI. The following applies: black MCE membrane; for Time detection (minimal timing necessary to enumerate microcolonies): 37° C. The test is classed as cell-based, Klebsiella pneumoniae.
The subject of a further test is E. coli ATCC®8739™. The test is described as above. The test is classed as cell-based, Escherichia coli. The following applies: black MCE membrane; for Time detection (minimal timing necessary to enumerate microcolonies): 37° C.
Test [5] deals with P. mirabilis ATCC® 29906™. The description is as above. The test is classed as cell-based, Proteus mirabilis. As to conditions: black MCE membrane.
The test system of the next test is S. aureus ATCC® 6538™. The description is as above. The class given is cell-based, Staphylococcus aureus. The following applies: black MCE membrane.
The test system of a further test is E. faecalis ATCC® 19433™. Described as above. As to conditions: black MCE membrane. The class given is cell-based, Enterococcus faecalis.

Structures are written as SMILES.

As to `CCC(=O)c1ccc2cc(N(C)C)ccc2c1` [Prodan, 6-propionyl-2-dimethyaminonaphthalene], the “Counting Scan at 17 h on MCE membrane with fluorochrome” value (from here on “Counting Scan at 17 h on MCE membrane”) is recorded as 118 in test [1] and 11 in test [2]. Further, the “Counting Scan at 17 h on PVDF membrane with fluorochrome” value (shortened to “Counting Scan at 17 h on PVDF membrane”) was 126 in test [1], 17 in test [2] and 6 in test [3].
Take `N=C(N)c1ccc(-c2cc3ccc(C(=N)N)cc3[nH]2)cc1` [DAPI, 4′,6-diamidino-2-phenylindole]: the “percentage of detected objects compared to standard procedure timing (24 h at 37° C.)” value is reported as “(100%)” in test [4] (K. pneumonia, Columbia Blood); “(100%)” in test [4] (K. pneumonia, TSA); “(100%)” in test [4] (K. pneumoniae, MacConkey); “(100%)” in the test on E. coli ATCC®8739™ (Columbia Blood); “(98%)” in the test on E. coli ATCC®8739™ (MacConkey); “(100%)” in the test on E. coli ATCC®8739™ (TSA). In addition, the “percentage of detected objects compared to standard procedure timing (24 h at 37° C.)” value is on record as “(94%)” in test [5] (Columbia Blood); “(98%)” in test [5] (TSA); “(100%)” in the test on S. aureus ATCC® 6538™ (Columbia Blood); “(100%)” with S. aureus ATCC® 6538™ (TSA); “(100%)” in the test with E. faecalis ATCC® 19433™ (Columbia Blood); “(100%)” with E. faecalis ATCC® 19433™ (TSA). Moreover, the “Time detection (minimal timing necessary to enumerate microcolonies)” value worked out at 10 h in test [4] (K. pneumonia, Columbia Blood); 10 h in test [4] (K. pneumonia, TSA); 11 h in test [4] (K. pneumoniae, MacConkey); 10 h in the test on E. coli ATCC®8739™ (MacConkey); 6 h in the test with E. coli ATCC®8739™ (TSA); 10 h in test [5] (TSA, 37° C.). Also, the “Time detection (minimal timing necessary to enumerate microcolonies)” value in the test on S. aureus ATCC® 6538™ (TSA, 37° C.) worked out at 8 h; in the test with E. faecalis ATCC® 19433™ (TSA, 37° C.), 7 h.
In the case of `CC[N+]1=C(C=CC=CC=C2N(CCCCCC(=O)O)c3ccc(S(=O)(=O)O)cc3C2(C)C)C(C)(C)c2cc(S(=O)(=O)[O-])ccc21` [Sulfo-Cy5-Acid], the “Counting Scan at 17 h on MCE membrane” value is recorded as 114 in test [1], 13 in test [2] and 25 in test [3]. The “Counting Scan at 17 h on PVDF membrane” value amounted to 120 in test [1], 13 in test [2] and 34 in test [3].
As for `CN(C)CCNc1ccc(O)c2c1C(=O)c1c(O)ccc(NCCN(C)C)c1C2=O` [DRAQ5, 1,5-bis (2-(di-methylamino)ethylamino)-4,8-dihydroxyanthracene-9,10-dione], in test [1], the “Counting Scan at 17 h on MCE membrane” value was found to be 185 and the “Counting Scan at 17 h on PVDF membrane” value is 162.
In the case of `Cc1ccc2n1[B-](F)(F)[N+]1=C(CCCCCCCCCCCC(=O)O)C=CC1=C2` [BODIPY 500/510, 12-(2,2-difluoro-12-methyl-1-aza-3-azonia-2-boranuidatricyclo[7.3.0.03,7]dodeca-3,5,7,9,11-pentaen-4-yl)dodecanoic acid], the “Counting Scan at 17 h on PVDF membrane” value in test [1] was determined as 112.
As for `Cc1c(CC(=O)ON2C(=O)CCC2=O)c(=O)oc2cc(N)c(S(=O)(=O)O)cc12` [AF350-NHS Ester, 7-amino-3-[2-(2,5-dioxopyrrolidin-1-yl)oxy-2-oxoethyl]-4-methyl-2-oxochromene-6-sulfonic acid], the results for the “Counting Scan at 17 h on MCE membrane” value in test [1], in test [2] and in test [3] were 109, 9 and 25, respectively. Moreover, the “Counting Scan at 17 h on PVDF membrane” value worked out at 107 in test [1], 20 in test [2] and 19 in test [3].
